Data as given in patent publication US20160326142A1, “PYRAZOLE CARBOXAMIDE COMPOUNDS, COMPOSITIONS AND METHODS OF USE” (Genentech, Inc., priority 2012, published 2016).

target: T1, ITK (Homo sapiens, UniProt Q08881); assay: ITK enzyme assay (Caliper or LCMS peptide phosphorylation); assay type: biochemical; conditions: purified ITK (Invitrogen PV3875), 20 μM ATP, Ki by Morrison's quadratic equation
T1 construct: purchased Invitrogen PV3875
T1 sequence (Q08881 1-620): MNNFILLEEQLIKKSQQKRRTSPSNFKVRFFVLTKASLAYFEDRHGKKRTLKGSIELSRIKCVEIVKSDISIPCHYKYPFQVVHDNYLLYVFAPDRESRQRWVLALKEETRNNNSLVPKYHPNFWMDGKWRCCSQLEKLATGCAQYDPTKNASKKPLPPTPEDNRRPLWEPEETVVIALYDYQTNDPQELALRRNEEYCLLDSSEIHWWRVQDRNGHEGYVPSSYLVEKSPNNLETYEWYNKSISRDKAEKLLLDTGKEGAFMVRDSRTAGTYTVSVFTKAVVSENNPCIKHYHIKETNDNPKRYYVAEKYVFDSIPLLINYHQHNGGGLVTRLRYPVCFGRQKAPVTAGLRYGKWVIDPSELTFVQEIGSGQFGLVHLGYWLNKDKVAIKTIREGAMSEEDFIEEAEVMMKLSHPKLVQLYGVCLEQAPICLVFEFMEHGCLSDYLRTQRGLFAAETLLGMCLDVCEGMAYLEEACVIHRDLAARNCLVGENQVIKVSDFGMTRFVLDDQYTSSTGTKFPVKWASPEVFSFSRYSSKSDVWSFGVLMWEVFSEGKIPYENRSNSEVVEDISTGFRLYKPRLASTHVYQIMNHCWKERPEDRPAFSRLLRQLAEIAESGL
Method in brief: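 Purified human ITK peptide phosphorylation, quenched with EDTA (50 mM final) for Caliper LabChip separation or TCA (5% v/v final) for UPLC-MS/MS MRM quantification. Ki derived via Morrison tight-binding equation, corrected for competitive inhibition using ATP concentration relative to Km,app.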

Row | Ki | SMILES
1 | 12 nM | CC1CC(C(c2ccccc2)n2cc(NC(=O)c3n[nH]c4c3CCC(C)(C)C4)cn2)CCS1(=O)=O (single isomer, unassigned) [Example 139d, 6,6-dimethyl-N-(1-((2-methyl-1,1-dioxidotetrahydro-2H-thiopyran-4-yl)(phenyl)methyl)-1H-pyrazol-4-yl)-4,5,6,7-tetrahydro-1H-indazole-3-carboxamide]
2 | 1 nM | CC1CC(C(c2ccccc2)n2cc(NC(=O)c3n[nH]c4c3CCC(C)(C)C4)cn2)CCS1(=O)=O (single isomer, unassigned) [Example 139e, 6,6-dimethyl-N-(1-((2-methyl-1,1-dioxidotetrahydro-2H-thiopyran-4-yl)(phenyl)methyl)-1H-pyrazol-4-yl)-4,5,6,7-tetrahydro-1H-indazole-3-carboxamide]
3 | 0.6 nM | CC1CC(C(c2ccccc2)n2cc(NC(=O)c3n[nH]c4c3CCC(C)(C)C4)cn2)CCS1(=O)=O (single isomer, unassigned) [Example 139f, 6,6-dimethyl-N-(1-((2-methyl-1,1-dioxidotetrahydro-2H-thiopyran-4-yl)(phenyl)methyl)-1H-pyrazol-4-yl)-4,5,6,7-tetrahydro-1H-indazole-3-carboxamide]
4 | 8 nM | CC1CC(C(c2ccccc2)n2cc(NC(=O)c3n[nH]c4c3CCC(C)(C)C4)cn2)CCS1(=O)=O (single isomer, unassigned) [Example 139g, 6,6-dimethyl-N-(1-((2-methyl-1,1-dioxidotetrahydro-2H-thiopyran-4-yl)(phenyl)methyl)-1H-pyrazol-4-yl)-4,5,6,7-tetrahydro-1H-indazole-3-carboxamide]
5 | 12 nM | CC1CC(C(c2ccccc2)n2cc(NC(=O)c3n[nH]c4c3CCC(C)(C)C4)cn2)CCS1(=O)=O (single isomer, unassigned) [Example 139h, 6,6-dimethyl-N-(1-((2-methyl-1,1-dioxidotetrahydro-2H-thiopyran-4-yl)(phenyl)methyl)-1H-pyrazol-4-yl)-4,5,6,7-tetrahydro-1H-indazole-3-carboxamide]
6 | 0.4 nM | CC1(C)CCc2c(C(=O)Nc3cnn(C(c4ccccc4)C4CC[N+](C)([O-])CC4)c3)n[nH]c2C1 (single isomer, unassigned) [Example 140a, 4-((4-(6,6-dimethyl-4,5,6,7-tetrahydro-1H-indazole-3-carboxamido)-1H-pyrazol-1-yl)(phenyl)methyl)-1-methylpiperidine 1-oxide]
7 | 14 nM | CC1(C)CCc2c(C(=O)Nc3cnn(C(c4ccccc4)C4CC[N+](C)([O-])CC4)c3)n[nH]c2C1 (single isomer, unassigned) [Example 140b, 4-((4-(6,6-dimethyl-4,5,6,7-tetrahydro-1H-indazole-3-carboxamido)-1H-pyrazol-1-yl)(phenyl)methyl)-1-methylpiperidine 1-oxide]
8 | < 0.1 nM | CC12Cc3[nH]nc(C(=O)Nc4cnn(C(c5ccccc5)C5CC[S+]([O-])CC5)c4)c3CC1C2(F)F (single isomer, unassigned) [Example 142a, 5,5-difluoro-5a-methyl-N-(1-((1-oxidotetrahydro-2H-thiopyran-4-yl)(phenyl)methyl)-1H-pyrazol-4-yl)-1,4,4a,5,5a,6-hexahydrocyclopropa[f]indazole-3-carboxamide]
9 | < 0.1 nM | CC12Cc3[nH]nc(C(=O)Nc4cnn(C(c5ccccc5)C5CC[S+]([O-])CC5)c4)c3CC1C2(F)F (single isomer, unassigned) [Example 142b, 5,5-difluoro-5a-methyl-N-(1-((1-oxidotetrahydro-2H-thiopyran-4-yl)(phenyl)methyl)-1H-pyrazol-4-yl)-1,4,4a,5,5a,6-hexahydrocyclopropa[f]indazole-3-carboxamide]
10 | < 0.1 nM | CC12Cc3[nH]nc(C(=O)Nc4cnn(C(c5ccccc5)C5CCCCS5(=O)=O)c4)c3CC1C2 (single isomer, unassigned) [Example 143a, N-(1-((1,1-dioxidotetrahydro-2H-thiopyran-2-yl)(phenyl)methyl)-1H-pyrazol-4-yl)-5a-methyl-1,4,4a,5,5a,6-hexahydrocyclopropa[f]indazole-3-carboxamide]
11 | 2 nM | CC12Cc3[nH]nc(C(=O)Nc4cnn(C(c5ccccc5)C5CCCCS5(=O)=O)c4)c3CC1C2 (single isomer, unassigned) [Example 143b, N-(1-((1,1-dioxidotetrahydro-2H-thiopyran-2-yl)(phenyl)methyl)-1H-pyrazol-4-yl)-5a-methyl-1,4,4a,5,5a,6-hexahydrocyclopropa[f]indazole-3-carboxamide]
12 | 2 nM | CC12Cc3[nH]nc(C(=O)Nc4cnn(C(c5ccccc5)C5CCCCS5(=O)=O)c4)c3CC1C2 (single isomer, unassigned) [Example 143c, N-(1-((1,1-dioxidotetrahydro-2H-thiopyran-2-yl)(phenyl)methyl)-1H-pyrazol-4-yl)-5a-methyl-1,4,4a,5,5a,6-hexahydrocyclopropa[f]indazole-3-carboxamide]
13 | < 0.1 nM | CC12Cc3[nH]nc(C(=O)Nc4cnn(C(c5ccccc5)C5CCCCS5(=O)=O)c4)c3CC1C2 (single isomer, unassigned) [Example 143d, N-(1-((1,1-dioxidotetrahydro-2H-thiopyran-2-yl)(phenyl)methyl)-1H-pyrazol-4-yl)-5a-methyl-1,4,4a,5,5a,6-hexahydrocyclopropa[f]indazole-3-carboxamide]
14 | 0.1 nM | CC1(C)CCc2c(C(=O)Nc3cnn(C(c4cccnc4)C4CCCCS4(=O)=O)c3)n[nH]c2C1 (single isomer, unassigned) [Example 144a, N-(1-((1,1-dioxidotetrahydro-2H-thiopyran-2-yl)(pyridin-3-yl)methyl)-1H-pyrazol-4-yl)-6,6-dimethyl-4,5,6,7-tetrahydro-1H-indazole-3-carboxamide]
15 | 3 nM | CC1(C)CCc2c(C(=O)Nc3cnn(C(c4cccnc4)C4CCCCS4(=O)=O)c3)n[nH]c2C1 (single isomer, unassigned) [Example 144b, N-(1-((1,1-dioxidotetrahydro-2H-thiopyran-2-yl)(pyridin-3-yl)methyl)-1H-pyrazol-4-yl)-6,6-dimethyl-4,5,6,7-tetrahydro-1H-indazole-3-carboxamide]
16 | 0.1 nM | CC1(C)CCc2c(C(=O)Nc3cnn(C(c4cccnc4)C4CCCCS4(=O)=O)c3)n[nH]c2C1 (single isomer, unassigned) [Example 144c, N-(1-((1,1-dioxidotetrahydro-2H-thiopyran-2-yl)(pyridin-3-yl)methyl)-1H-pyrazol-4-yl)-6,6-dimethyl-4,5,6,7-tetrahydro-1H-indazole-3-carboxamide]
17 | 2 nM | CC1(C)CCc2c(C(=O)Nc3cnn(C(c4cccnc4)C4CCCCS4(=O)=O)c3)n[nH]c2C1 (single isomer, unassigned) [Example 144d, N-(1-((1,1-dioxidotetrahydro-2H-thiopyran-2-yl)(pyridin-3-yl)methyl)-1H-pyrazol-4-yl)-6,6-dimethyl-4,5,6,7-tetrahydro-1H-indazole-3-carboxamide]
18 | 0.1 nM | CC12Cc3[nH]nc(C(=O)Nc4cnn(C(c5cccnc5)C5CC[S+]([O-])CC5)c4)c3CC1C2 (single isomer, unassigned) [Example 146a, 5a-methyl-N-(1-((1-oxidotetrahydro-2H-thiopyran-4-yl)(pyridin-3-yl)methyl)-1H-pyrazol-4-yl)-1,4,4a,5,5a,6-hexahydrocyclopropa[f]indazole-3-carboxamide]
19 | 2 nM | CC12Cc3[nH]nc(C(=O)Nc4cnn(C(c5cccnc5)C5CC[S+]([O-])CC5)c4)c3CC1C2 (single isomer, unassigned) [Example 146b, 5a-methyl-N-(1-((1-oxidotetrahydro-2H-thiopyran-4-yl)(pyridin-3-yl)methyl)-1H-pyrazol-4-yl)-1,4,4a,5,5a,6-hexahydrocyclopropa[f]indazole-3-carboxamide]
20 | 0.1 nM | CC12Cc3[nH]nc(C(=O)Nc4cnn(C(c5cccnc5)C5CC[S+]([O-])CC5)c4)c3CC1C2 (single isomer, unassigned) [Example 146c, 5a-methyl-N-(1-((1-oxidotetrahydro-2H-thiopyran-4-yl)(pyridin-3-yl)methyl)-1H-pyrazol-4-yl)-1,4,4a,5,5a,6-hexahydrocyclopropa[f]indazole-3-carboxamide]
21 | 2 nM | CC12Cc3[nH]nc(C(=O)Nc4cnn(C(c5cccnc5)C5CC[S+]([O-])CC5)c4)c3CC1C2 (single isomer, unassigned) [Example 146d, 5a-methyl-N-(1-((1-oxidotetrahydro-2H-thiopyran-4-yl)(pyridin-3-yl)methyl)-1H-pyrazol-4-yl)-1,4,4a,5,5a,6-hexahydrocyclopropa[f]indazole-3-carboxamide]
22 | 0.6 nM | CC1(C)CCc2c(C(=O)Nc3cnn(C(c4cccnc4)C4CC[S+]([O-])CC4)c3)n[nH]c2C1 (single isomer, unassigned) [Example 147a, 6,6-dimethyl-N-(1-((1-oxidotetrahydro-2H-thiopyran-4-yl)(pyridin-3-yl)methyl)-1H-pyrazol-4-yl)-4,5,6,7-tetrahydro-1H-indazole-3-carboxamide]
